Species: Rattus norvegicus
Test: Open TG-GATES - Regimen: Single
Format: toxicity, organism-based, Sprague-Dawley
Set-up: regimen Single, gender Male, age 6 weeks
Conditions: in vivo, po, route gavage; for APTT / Bas / Eos / Fbg / Hb / Ht / Lym / MCH / MCHC / MCV / Mono / Neu / PT / Plat / RBC / Ret / WBC: tissue Blood; for KIDNEY_L / KIDNEY_R / KIDNEY_TOTAL: tissue Kidney; for LIVER: tissue Liver; for A/G / ALP / ALT / AST / BUN / CRE / Ca / Cl / DBIL / GLC / IP / K / LDH / Na / PL / RALB / TBIL / TC / TG / TP / gamma-GTP: tissue Plasma
[1] = 100 mg/kg, 3 h, dose level Middle
[2] = 100 mg/kg, 6 h, dose level Middle
[3] = 100 mg/kg, 9 h, dose level Middle
[4] = 100 mg/kg, 24 h, dose level Middle
[5] = 300 mg/kg, 3 h, dose level High
[6] = 300 mg/kg, 6 h, dose level High
[7] = 300 mg/kg, 9 h, dose level High
[8] = 300 mg/kg, 24 h, dose level High

Nc1ccc(Cc2ccc(N)cc2)cc1
TERMINAL_BW [1]: 212.4 g
APTT [1]: 14.4 s
Bas [1]: 0%
Eos [1]: 0.6%
Fbg [1]: 268.8 mg/dL
Hb [1]: 13 g/dL
Ht [1]: 38%
Lym [1]: 75.8%
MCH [1]: 21 pg
MCHC [1]: 34.2%
MCV [1]: 61.4 fL
Mono [1]: 3.8%
Neu [1]: 19.4%
PT [1]: 11.7 s
Plat [1]: 154.4 x10_4/uL
RBC [1]: 618.6 x10_4/ul
Ret [1]: 8.7%
WBC [1]: 83.6 x10_2/uL
KIDNEY_L [1]: 0.8 g
KIDNEY_R [1]: 0.9 g
KIDNEY_TOTAL [1]: 1.7 g
LIVER [1]: 9.1 g
A/G [1]: 0.8
ALP [1]: 1470.6 IU/L
ALT [1]: 45.6 IU/L
AST [1]: 82.8 IU/L
BUN [1]: 11 mg/dL
CRE [1]: 0.2 mg/dL
Ca [1]: 10.9 mg/dL
Cl [1]: 104 meq/L
DBIL [1]: 0.028 mg/dL
GLC [1]: 173.6 mg/dL
IP [1]: 9.4 mg/dL
K [1]: 4 meq/L
LDH [1]: 64.4 IU/L
Na [1]: 140.2 meq/L
PL [1]: 155.6 mg/dL
RALB [1]: 2.5 g/dL
TBIL [1]: 0.074 mg/dL
TC [1]: 86.4 mg/dL
TG [1]: 73 mg/dL
TP [1]: 5.6 g/dL
gamma-GTP [1]: 1.2 IU/L
TERMINAL_BW [2]: 206.8 g
APTT [2]: 14.6 s
Bas [2]: 0%
Eos [2]: 0.6%
Fbg [2]: 278 mg/dL
Hb [2]: 13.4 g/dL
Ht [2]: 39.2%
Lym [2]: 62.4%
MCH [2]: 21.2 pg
MCHC [2]: 34.1%
MCV [2]: 62.3 fL
Mono [2]: 3.6%
Neu [2]: 32.2%
PT [2]: 11.8 s
Plat [2]: 144.9 x10_4/uL
RBC [2]: 630.2 x10_4/ul
Ret [2]: 8.2%
WBC [2]: 104 x10_2/uL
KIDNEY_L [2]: 0.9 g
KIDNEY_R [2]: 0.9 g
KIDNEY_TOTAL [2]: 1.9 g
LIVER [2]: 9.3 g
A/G [2]: 0.8
ALP [2]: 1520.8 IU/L
ALT [2]: 42.8 IU/L
AST [2]: 94.8 IU/L
BUN [2]: 8.8 mg/dL
CRE [2]: 0.2 mg/dL
Ca [2]: 10.5 mg/dL
Cl [2]: 104.6 meq/L
DBIL [2]: 0.1 mg/dL
GLC [2]: 176.2 mg/dL
IP [2]: 9.5 mg/dL
K [2]: 4 meq/L
LDH [2]: 90 IU/L
Na [2]: 140.2 meq/L
PL [2]: 152.4 mg/dL
RALB [2]: 2.5 g/dL
TBIL [2]: 0.2 mg/dL
TC [2]: 79 mg/dL
TG [2]: 53.2 mg/dL
TP [2]: 5.6 g/dL
gamma-GTP [2]: 2.6 IU/L
TERMINAL_BW [3]: 205.5 g
APTT [3]: 14.8 s
Bas [3]: 0%
Eos [3]: 0.8%
Fbg [3]: 285.4 mg/dL
Hb [3]: 13 g/dL
Ht [3]: 37.8%
Lym [3]: 68.6%
MCH [3]: 21.2 pg
MCHC [3]: 34.2%
MCV [3]: 61.9 fL
Mono [3]: 2.8%
Neu [3]: 27.6%
PT [3]: 12.1 s
Plat [3]: 139.1 x10_4/uL
RBC [3]: 610.8 x10_4/ul
Ret [3]: 7.8%
WBC [3]: 72.9 x10_2/uL
KIDNEY_L [3]: 0.9 g
KIDNEY_R [3]: 0.9 g
KIDNEY_TOTAL [3]: 1.8 g
LIVER [3]: 8 g
A/G [3]: 0.8
ALP [3]: 1218.8 IU/L
ALT [3]: 43.8 IU/L
AST [3]: 105 IU/L
BUN [3]: 8.2 mg/dL
CRE [3]: 0.2 mg/dL
Ca [3]: 10.2 mg/dL
Cl [3]: 106.2 meq/L
DBIL [3]: 0.2 mg/dL
GLC [3]: 167.6 mg/dL
IP [3]: 9.4 mg/dL
K [3]: 4.5 meq/L
LDH [3]: 99 IU/L
Na [3]: 142.4 meq/L
PL [3]: 166.2 mg/dL
RALB [3]: 2.4 g/dL
TBIL [3]: 0.3 mg/dL
TC [3]: 86.8 mg/dL
TG [3]: 39.8 mg/dL
TP [3]: 5.3 g/dL
gamma-GTP [3]: 3.4 IU/L
TERMINAL_BW [4]: 195.3 g
APTT [4]: 16.4 s
Bas [4]: 0%
Eos [4]: 0.4%
Fbg [4]: 474.8 mg/dL
Hb [4]: 12.6 g/dL
Ht [4]: 35.7%
Lym [4]: 62.4%
MCH [4]: 21.5 pg
MCHC [4]: 35.4%
MCV [4]: 60.6 fL
Mono [4]: 5%
Neu [4]: 31%
PT [4]: 11.5 s
Plat [4]: 149.3 x10_4/uL
RBC [4]: 589 x10_4/ul
Ret [4]: 6.7%
WBC [4]: 118.7 x10_2/uL
KIDNEY_L [4]: 0.9 g
KIDNEY_R [4]: 0.9 g
KIDNEY_TOTAL [4]: 1.8 g
LIVER [4]: 7.8 g
A/G [4]: 0.8
ALP [4]: 3282.4 IU/L
ALT [4]: 252.8 IU/L
AST [4]: 532.6 IU/L
BUN [4]: 11.2 mg/dL
CRE [4]: 0.2 mg/dL
Ca [4]: 11.1 mg/dL
Cl [4]: 102.2 meq/L
DBIL [4]: 2.3 mg/dL
GLC [4]: 136.2 mg/dL
IP [4]: 9.6 mg/dL
K [4]: 3.8 meq/L
LDH [4]: 332.8 IU/L
Na [4]: 143.8 meq/L
PL [4]: 302.6 mg/dL
RALB [4]: 2.4 g/dL
TBIL [4]: 3.1 mg/dL
TC [4]: 135.2 mg/dL
TG [4]: 63.4 mg/dL
TP [4]: 5.6 g/dL
gamma-GTP [4]: 8.6 IU/L
TERMINAL_BW [5]: 208.2 g
APTT [5]: 15.8 s
Bas [5]: 0%
Eos [5]: 0.8%
Fbg [5]: 257.6 mg/dL
Hb [5]: 13.2 g/dL
Ht [5]: 38.1%
Lym [5]: 67.2%
MCH [5]: 22 pg
MCHC [5]: 34.5%
MCV [5]: 63.6 fL
Mono [5]: 6%
Neu [5]: 25.6%
PT [5]: 12.1 s
Plat [5]: 142.6 x10_4/uL
RBC [5]: 600 x10_4/ul
Ret [5]: 8.7%
WBC [5]: 64.7 x10_2/uL
KIDNEY_L [5]: 0.9 g
KIDNEY_R [5]: 0.9 g
KIDNEY_TOTAL [5]: 1.8 g
LIVER [5]: 9 g
A/G [5]: 0.8
ALP [5]: 1363.8 IU/L
ALT [5]: 64 IU/L
AST [5]: 137.4 IU/L
BUN [5]: 10.6 mg/dL
CRE [5]: 0.2 mg/dL
Ca [5]: 10.5 mg/dL
Cl [5]: 102 meq/L
DBIL [5]: 0.094 mg/dL
GLC [5]: 183.4 mg/dL
IP [5]: 9.4 mg/dL
K [5]: 4 meq/L
LDH [5]: 175.4 IU/L
Na [5]: 139.8 meq/L
PL [5]: 170.8 mg/dL
RALB [5]: 2.5 g/dL
TBIL [5]: 0.2 mg/dL
TC [5]: 81.4 mg/dL
TG [5]: 79 mg/dL
TP [5]: 5.4 g/dL
gamma-GTP [5]: 2.6 IU/L
TERMINAL_BW [6]: 207.7 g
APTT [6]: 15.1 s
Bas [6]: 0%
Eos [6]: 0.6%
Fbg [6]: 257.4 mg/dL
Hb [6]: 13.3 g/dL
Ht [6]: 38.2%
Lym [6]: 60.6%
MCH [6]: 21 pg
MCHC [6]: 34.8%
MCV [6]: 60.2 fL
Mono [6]: 3.4%
Neu [6]: 34.6%
PT [6]: 11.9 s
Plat [6]: 133.9 x10_4/uL
RBC [6]: 634.6 x10_4/ul
Ret [6]: 7.3%
WBC [6]: 78.7 x10_2/uL
KIDNEY_L [6]: 0.9 g
KIDNEY_R [6]: 0.9 g
KIDNEY_TOTAL [6]: 1.9 g
LIVER [6]: 8.9 g
A/G [6]: 0.8
ALP [6]: 1513.4 IU/L
ALT [6]: 67 IU/L
AST [6]: 168.6 IU/L
BUN [6]: 11.8 mg/dL
CRE [6]: 0.2 mg/dL
Ca [6]: 10.2 mg/dL
Cl [6]: 100.8 meq/L
DBIL [6]: 0.4 mg/dL
GLC [6]: 172.6 mg/dL
IP [6]: 9.1 mg/dL
K [6]: 4.2 meq/L
LDH [6]: 196.8 IU/L
Na [6]: 140.8 meq/L
PL [6]: 152.8 mg/dL
RALB [6]: 2.3 g/dL
TBIL [6]: 0.6 mg/dL
TC [6]: 79.8 mg/dL
TG [6]: 42.6 mg/dL
TP [6]: 5.1 g/dL
gamma-GTP [6]: 5 IU/L
TERMINAL_BW [7]: 208 g
APTT [7]: 13.8 s
Bas [7]: 0%
Eos [7]: 0.4%
Fbg [7]: 257 mg/dL
Hb [7]: 12.6 g/dL
Ht [7]: 35.8%
Lym [7]: 52.2%
MCH [7]: 21.1 pg
MCHC [7]: 35.1%
MCV [7]: 60.1 fL
Mono [7]: 3.6%
Neu [7]: 42.6%
PT [7]: 11.9 s
Plat [7]: 139.7 x10_4/uL
RBC [7]: 595.6 x10_4/ul
Ret [7]: 7.8%
WBC [7]: 85.3 x10_2/uL
KIDNEY_L [7]: 0.9 g
KIDNEY_R [7]: 0.9 g
KIDNEY_TOTAL [7]: 1.9 g
LIVER [7]: 8.6 g
A/G [7]: 0.8
ALP [7]: 1671 IU/L
ALT [7]: 132.8 IU/L
AST [7]: 365.6 IU/L
BUN [7]: 11.8 mg/dL
CRE [7]: 0.2 mg/dL
Ca [7]: 10.3 mg/dL
Cl [7]: 101.6 meq/L
DBIL [7]: 0.7 mg/dL
GLC [7]: 176.2 mg/dL
IP [7]: 9.2 mg/dL
K [7]: 4.3 meq/L
LDH [7]: 351 IU/L
Na [7]: 142 meq/L
PL [7]: 173 mg/dL
RALB [7]: 2.3 g/dL
TBIL [7]: 1 mg/dL
TC [7]: 85 mg/dL
TG [7]: 45.2 mg/dL
TP [7]: 5.1 g/dL
gamma-GTP [7]: 7.4 IU/L
TERMINAL_BW [8]: 197.2 g
APTT [8]: 16.2 s
Bas [8]: 0%
Eos [8]: 1%
Fbg [8]: 321.4 mg/dL
Hb [8]: 12 g/dL
Ht [8]: 33.2%
Lym [8]: 52.8%
MCH [8]: 21.6 pg
MCHC [8]: 36%
MCV [8]: 59.8 fL
Mono [8]: 6.2%
Neu [8]: 39%
PT [8]: 11.9 s
Plat [8]: 148.1 x10_4/uL
RBC [8]: 554.4 x10_4/ul
Ret [8]: 6%
WBC [8]: 157.9 x10_2/uL
KIDNEY_L [8]: 0.9 g
KIDNEY_R [8]: 0.9 g
KIDNEY_TOTAL [8]: 1.8 g
LIVER [8]: 7.5 g
A/G [8]: 0.8
ALP [8]: 3659.6 IU/L
ALT [8]: 566.8 IU/L
AST [8]: 1154.8 IU/L
BUN [8]: 12 mg/dL
CRE [8]: 0.2 mg/dL
Ca [8]: 11 mg/dL
Cl [8]: 102.6 meq/L
DBIL [8]: 2.2 mg/dL
GLC [8]: 145.6 mg/dL
IP [8]: 8.7 mg/dL
K [8]: 4 meq/L
LDH [8]: 788.8 IU/L
Na [8]: 144.2 meq/L
PL [8]: 346.4 mg/dL
RALB [8]: 2.4 g/dL
TBIL [8]: 3.2 mg/dL
TC [8]: 145.2 mg/dL
TG [8]: 133.6 mg/dL
TP [8]: 5.6 g/dL
gamma-GTP [8]: 8.4 IU/L

— ChEMBL document CHEMBL3885861, “Open TG-GATES”
